A word on the remaining activity: it is the signal under treatment as a percentage of the control signal.

2 compounds from publication PMC3848336, “Aurora Isoform Selectivity: Design and Synthesis of Imidazo[4,5-b]pyridine Derivatives as Highly Selective Inhibitors of Aurora-A Kinase in Cells” (Journal of Medicinal Chemistry, 2013) can be followed below.

One test has as its target Aurora A (Homo sapiens, UniProt O14965). Kind of test: Kinase selectivity profiling. To be noted: 110-kinase panel. In kind it is biochemical.
The target in a further test is DYRK3 (Homo sapiens, UniProt O43781). The test is described as follows: Kinase selectivity profiling. In kind it is biochemical. To be noted: 110-kinase panel. The source says:
(§1) Compound 28c was profiled against a panel of 110 kinases at the International Centre for Protein Kinase Profiling, Division of Signal Transduction Therapy, University of Dundee. Compound 40f was profiled against a panel of 50 kinases (MRC-PPU Express Screen) also at the International Centre for Protein Kinase Profiling.

A further test deals with CDK2-Cyclin A (Homo sapiens, UniProt P24941). The test is described as follows: Kinase selectivity profiling. The following applies: 110-kinase panel, read-out: % activity remaining, CDK22Cyclin A. In kind it is biochemical.
Excerpt: as §1

The next test concerns the target ERK8 (Homo sapiens, UniProt Q8TD08). Kind of test: Kinase selectivity profiling. In kind it is biochemical. To be noted: 110-kinase panel.
Excerpt: as §1

A further test concerns the target EPH-B3 (Homo sapiens, UniProt P54753). The test is described as follows: Kinase selectivity profiling. To be noted: 110-kinase panel, read-out: % activity remaining, EPH2B3. In kind it is biochemical.
Excerpt: as §1

A further test deals with MEKK1 (Homo sapiens, UniProt Q13233). The test is described as follows: Kinase selectivity profiling. To be noted: 110-kinase panel. In kind it is biochemical.
Excerpt: as §1

A further test addresses TAO1 (Homo sapiens, UniProt Q7L7X3). Kind of test: Kinase selectivity profiling. In kind it is biochemical. The following applies: 110-kinase panel.
Excerpt: as §1

The target of the next test is MARK1 (Homo sapiens, UniProt Q9P0L2). The test is described as follows: Kinase selectivity profiling. To be noted: 110-kinase panel. In kind it is biochemical.
Excerpt: as §1

The target of the next test is MKK2 (Homo sapiens, UniProt P36507). The test is described as follows: Kinase selectivity profiling. In kind it is biochemical. To be noted: 110-kinase panel.
Excerpt: as §1

Another test concerns the target RSK2 (Homo sapiens, UniProt P51812). The test is described as follows: Kinase selectivity profiling. In kind it is biochemical. The following applies: 110-kinase panel.
Excerpt: as §1

Another test concerns the target CLK2 (Homo sapiens, UniProt P49760). The test is described as follows: Kinase selectivity profiling. In kind it is biochemical. The following applies: 110-kinase panel.
Excerpt: as §1

For the next test, the target named is PKCz (Homo sapiens, UniProt Q05513). Kind of test: Kinase selectivity profiling. In kind it is biochemical. To be noted: 110-kinase panel.
Excerpt: as §1

The next test deals with MNK2 (Homo sapiens, UniProt Q9HBH9). The test is described as follows: Kinase selectivity profiling. In kind it is biochemical. The following applies: 110-kinase panel.
Excerpt: as §1

In another test the target is p38g MAPK (Homo sapiens, UniProt P53778). The test is described as follows: Kinase selectivity profiling. In kind it is biochemical. To be noted: 110-kinase panel.
Excerpt: as §1

Another test deals with CK1 (Homo sapiens, UniProt P48730). The test is described as follows: Kinase selectivity profiling. In kind it is biochemical. The following applies: 110-kinase panel.
Excerpt: as §1

In a further test the target is IR (Homo sapiens, UniProt P06213). The test is described as follows: Kinase selectivity profiling. In kind it is biochemical. To be noted: 110-kinase panel.
Excerpt: as §1

The next test addresses IKKe (Homo sapiens, UniProt Q14164). Kind of test: Kinase selectivity profiling. The following applies: 110-kinase panel. In kind it is biochemical.
Excerpt: as §1

For a further test, the target named is MAPKAP-K3 (Homo sapiens, UniProt Q16644). The test is described as follows: Kinase selectivity profiling. In kind it is biochemical. To be noted: 110-kinase panel, read-out: % activity remaining, MAPKAP2K3.
Excerpt: as §1

In another test the target is HIPK1 (Homo sapiens, UniProt Q86Z02). The test is described as follows: Kinase selectivity profiling. In kind it is biochemical. To be noted: 110-kinase panel.
Excerpt: as §1

The next test concerns the target FGF-R1 (Homo sapiens, UniProt P11362). Kind of test: Kinase selectivity profiling. In kind it is biochemical. To be noted: 110-kinase panel, read-out: % activity remaining, FGF2R1.
Excerpt: as §1

The next test concerns the target EPH-B2 (Homo sapiens, UniProt P29323). The test is described as follows: Kinase selectivity profiling. In kind it is biochemical. The following applies: 110-kinase panel, read-out: % activity remaining, EPH2B2.
Excerpt: as §1

The next test concerns the target EPH-A4 (Homo sapiens, UniProt P54764). Kind of test: Kinase selectivity profiling. In kind it is biochemical. The following applies: 110-kinase panel, read-out: % activity remaining, EPH2A4.
Excerpt: as §1

In another test the target is CHK1 (Homo sapiens, UniProt O14757). The test is described as follows: Kinase selectivity profiling. In kind it is biochemical. The following applies: 110-kinase panel.
Excerpt: as §1

The next test concerns the target YES1 (Homo sapiens, UniProt P07947). The test is described as follows: Kinase selectivity profiling. In kind it is biochemical. To be noted: 110-kinase panel.
Excerpt: as §1

A further test addresses PIM3 (Homo sapiens, UniProt Q86V86). Kind of test: Kinase selectivity profiling. In kind it is biochemical. The following applies: 110-kinase panel.
Excerpt: as §1

A further test concerns the target CK1δ (Homo sapiens, UniProt P48730). The test is described as follows: Kinase selectivity profiling. In kind it is biochemical. To be noted: 50-kinase panel (MRC-PPU Express Screen).
Excerpt: as §1

For another test, the target named is T1, Aurora-A wild type (Homo sapiens, UniProt O14965).
T1 construct: expressed in transfected cells; host or cells: Hela cervical cancer cells; HCT116 human colon carcinoma cells
Kind of test: Cellular inhibition of Aurora-A autophosphorylation at T288 in HCT116 cells. In kind it is cell-based. To be noted: 1.5 μM. On the procedure:
Determination of cellular inhibition of Aurora-A (at T288) and histone H3 (at S10) has been described previously.[19] Briefly, cells were transfected with the Myc-tagged Aurora-A wild type or mutants and treated with different concentrations of the inhibitors for 2 h followed by lysis in LDS sample buffer. The samples were sonicated and boiled, and the proteins were separated by LDS–PAGE and transferred to nitrocellulose membranes. The upper and lower parts of the membranes were probed with anti-P-T288 (Aurora-A autophosphorylation/activation) and anti-P-histone H3 (Aurora-B substrate phosphorylation) antibodies, respectively. The blots were quantified and IC50 values determined using Graphpad Prism. Mammalian cell expression constructs encoding Aurora-A T217E, L215R, and R220K mutants with N-terminal Myc tags were produced using Quikchange mutagenesis (Stratagene).

Sequence of ERK8 (Q8TD08 whole entry, species assumed): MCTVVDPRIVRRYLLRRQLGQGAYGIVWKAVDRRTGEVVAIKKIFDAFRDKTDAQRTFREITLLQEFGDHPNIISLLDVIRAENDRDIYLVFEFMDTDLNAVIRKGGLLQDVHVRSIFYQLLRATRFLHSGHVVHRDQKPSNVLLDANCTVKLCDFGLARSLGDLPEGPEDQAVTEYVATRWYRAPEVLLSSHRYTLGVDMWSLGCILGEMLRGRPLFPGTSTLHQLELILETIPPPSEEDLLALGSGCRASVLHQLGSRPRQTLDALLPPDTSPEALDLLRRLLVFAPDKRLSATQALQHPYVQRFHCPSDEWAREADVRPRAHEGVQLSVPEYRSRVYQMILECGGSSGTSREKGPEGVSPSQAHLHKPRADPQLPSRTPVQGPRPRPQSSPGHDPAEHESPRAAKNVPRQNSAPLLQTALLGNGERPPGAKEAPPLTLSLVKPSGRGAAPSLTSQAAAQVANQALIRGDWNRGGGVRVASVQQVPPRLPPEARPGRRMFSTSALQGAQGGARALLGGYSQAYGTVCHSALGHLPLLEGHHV
Sequence of FGF-R1 (P11362 22-822): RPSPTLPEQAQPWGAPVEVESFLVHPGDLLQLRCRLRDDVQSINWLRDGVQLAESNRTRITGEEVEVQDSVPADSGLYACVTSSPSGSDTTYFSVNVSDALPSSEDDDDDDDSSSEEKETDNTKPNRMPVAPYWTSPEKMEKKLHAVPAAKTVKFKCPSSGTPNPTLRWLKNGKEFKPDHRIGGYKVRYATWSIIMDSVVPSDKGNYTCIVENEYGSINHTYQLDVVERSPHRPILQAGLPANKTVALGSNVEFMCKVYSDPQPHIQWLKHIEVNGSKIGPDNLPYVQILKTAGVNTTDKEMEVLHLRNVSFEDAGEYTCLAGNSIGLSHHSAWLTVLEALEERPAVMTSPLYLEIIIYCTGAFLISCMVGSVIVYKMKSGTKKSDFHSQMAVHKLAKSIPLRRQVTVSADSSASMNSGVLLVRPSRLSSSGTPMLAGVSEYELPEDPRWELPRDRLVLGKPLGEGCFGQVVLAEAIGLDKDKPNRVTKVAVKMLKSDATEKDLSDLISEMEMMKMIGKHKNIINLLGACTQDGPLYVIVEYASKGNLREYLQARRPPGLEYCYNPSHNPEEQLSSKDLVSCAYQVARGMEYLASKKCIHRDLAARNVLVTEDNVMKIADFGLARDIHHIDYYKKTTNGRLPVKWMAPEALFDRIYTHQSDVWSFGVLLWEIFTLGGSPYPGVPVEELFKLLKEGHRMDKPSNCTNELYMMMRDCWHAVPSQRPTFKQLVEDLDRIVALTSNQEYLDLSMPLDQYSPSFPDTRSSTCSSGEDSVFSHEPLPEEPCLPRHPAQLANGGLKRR
Sequence of YES1 (P07947 whole entry): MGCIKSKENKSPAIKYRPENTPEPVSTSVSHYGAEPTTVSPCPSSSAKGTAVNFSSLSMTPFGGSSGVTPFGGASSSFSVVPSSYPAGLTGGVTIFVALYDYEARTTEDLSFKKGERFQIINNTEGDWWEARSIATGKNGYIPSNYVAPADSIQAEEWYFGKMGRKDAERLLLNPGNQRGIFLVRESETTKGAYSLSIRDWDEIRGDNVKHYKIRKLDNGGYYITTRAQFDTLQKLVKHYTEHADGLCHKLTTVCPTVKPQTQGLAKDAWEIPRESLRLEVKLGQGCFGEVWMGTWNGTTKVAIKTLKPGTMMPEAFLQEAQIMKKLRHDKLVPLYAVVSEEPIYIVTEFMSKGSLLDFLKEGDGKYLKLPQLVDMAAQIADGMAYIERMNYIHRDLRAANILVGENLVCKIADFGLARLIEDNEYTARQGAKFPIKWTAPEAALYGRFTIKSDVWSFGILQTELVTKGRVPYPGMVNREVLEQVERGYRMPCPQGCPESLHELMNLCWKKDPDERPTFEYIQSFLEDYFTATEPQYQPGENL
Sequence of EPH-B2 (P29323 19-1055): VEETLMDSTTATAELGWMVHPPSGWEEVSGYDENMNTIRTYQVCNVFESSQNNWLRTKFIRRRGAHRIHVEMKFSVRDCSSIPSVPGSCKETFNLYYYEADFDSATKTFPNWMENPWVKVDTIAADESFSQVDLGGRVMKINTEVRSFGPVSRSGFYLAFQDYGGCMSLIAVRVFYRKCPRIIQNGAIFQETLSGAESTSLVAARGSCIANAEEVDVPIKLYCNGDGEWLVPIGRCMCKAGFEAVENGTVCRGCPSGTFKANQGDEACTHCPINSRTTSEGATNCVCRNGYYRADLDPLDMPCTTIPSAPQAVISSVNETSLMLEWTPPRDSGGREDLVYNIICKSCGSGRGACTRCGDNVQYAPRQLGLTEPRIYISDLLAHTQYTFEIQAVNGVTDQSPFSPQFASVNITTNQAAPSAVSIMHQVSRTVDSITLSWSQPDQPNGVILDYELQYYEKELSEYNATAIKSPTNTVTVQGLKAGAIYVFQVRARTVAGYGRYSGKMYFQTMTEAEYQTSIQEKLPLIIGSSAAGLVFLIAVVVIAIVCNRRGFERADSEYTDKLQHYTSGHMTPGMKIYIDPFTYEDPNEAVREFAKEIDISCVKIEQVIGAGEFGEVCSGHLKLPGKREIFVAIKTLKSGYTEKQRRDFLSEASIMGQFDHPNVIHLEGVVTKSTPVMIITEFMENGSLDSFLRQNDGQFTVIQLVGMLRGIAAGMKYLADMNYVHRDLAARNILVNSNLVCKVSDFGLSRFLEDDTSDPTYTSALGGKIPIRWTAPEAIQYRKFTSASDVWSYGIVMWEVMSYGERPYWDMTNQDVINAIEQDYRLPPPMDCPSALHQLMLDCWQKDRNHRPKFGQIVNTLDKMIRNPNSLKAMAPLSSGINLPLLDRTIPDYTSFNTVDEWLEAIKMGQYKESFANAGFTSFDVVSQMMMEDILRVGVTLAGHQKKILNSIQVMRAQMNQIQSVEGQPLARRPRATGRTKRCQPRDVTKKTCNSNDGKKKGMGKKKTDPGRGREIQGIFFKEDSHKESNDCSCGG
Sequence of HIPK1 (Q86Z02 whole entry): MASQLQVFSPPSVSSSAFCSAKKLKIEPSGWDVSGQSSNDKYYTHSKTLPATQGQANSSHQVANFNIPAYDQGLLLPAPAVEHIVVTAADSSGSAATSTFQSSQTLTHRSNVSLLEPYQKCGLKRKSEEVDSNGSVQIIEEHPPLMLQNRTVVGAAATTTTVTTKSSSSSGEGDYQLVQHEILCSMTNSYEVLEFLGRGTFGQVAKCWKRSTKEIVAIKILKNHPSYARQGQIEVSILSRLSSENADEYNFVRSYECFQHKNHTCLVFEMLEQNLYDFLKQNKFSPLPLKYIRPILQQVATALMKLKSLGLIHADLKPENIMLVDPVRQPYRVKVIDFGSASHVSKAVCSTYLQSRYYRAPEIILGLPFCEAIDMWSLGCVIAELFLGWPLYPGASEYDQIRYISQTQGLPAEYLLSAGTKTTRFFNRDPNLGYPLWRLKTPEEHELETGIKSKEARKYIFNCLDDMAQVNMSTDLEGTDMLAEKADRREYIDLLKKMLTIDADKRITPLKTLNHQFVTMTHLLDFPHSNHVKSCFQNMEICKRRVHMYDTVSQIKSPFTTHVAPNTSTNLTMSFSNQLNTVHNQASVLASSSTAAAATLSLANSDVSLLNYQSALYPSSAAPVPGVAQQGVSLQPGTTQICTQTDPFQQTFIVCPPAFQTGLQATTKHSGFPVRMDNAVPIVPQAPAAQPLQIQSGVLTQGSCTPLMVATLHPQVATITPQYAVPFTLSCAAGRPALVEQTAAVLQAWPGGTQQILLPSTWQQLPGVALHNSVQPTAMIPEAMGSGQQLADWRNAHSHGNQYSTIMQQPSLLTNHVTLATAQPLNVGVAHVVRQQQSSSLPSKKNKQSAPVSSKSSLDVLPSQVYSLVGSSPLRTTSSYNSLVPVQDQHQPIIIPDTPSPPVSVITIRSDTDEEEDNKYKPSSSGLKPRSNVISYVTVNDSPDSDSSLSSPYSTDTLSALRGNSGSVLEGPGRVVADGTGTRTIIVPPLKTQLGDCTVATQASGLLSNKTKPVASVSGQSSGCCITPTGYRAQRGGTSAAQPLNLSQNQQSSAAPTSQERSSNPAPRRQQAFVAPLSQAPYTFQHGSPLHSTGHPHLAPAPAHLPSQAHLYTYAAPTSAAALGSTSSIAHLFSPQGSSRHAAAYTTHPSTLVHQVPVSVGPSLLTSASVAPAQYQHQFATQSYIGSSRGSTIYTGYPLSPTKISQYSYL
Sequence of EPH-B3 (P54753 34-998): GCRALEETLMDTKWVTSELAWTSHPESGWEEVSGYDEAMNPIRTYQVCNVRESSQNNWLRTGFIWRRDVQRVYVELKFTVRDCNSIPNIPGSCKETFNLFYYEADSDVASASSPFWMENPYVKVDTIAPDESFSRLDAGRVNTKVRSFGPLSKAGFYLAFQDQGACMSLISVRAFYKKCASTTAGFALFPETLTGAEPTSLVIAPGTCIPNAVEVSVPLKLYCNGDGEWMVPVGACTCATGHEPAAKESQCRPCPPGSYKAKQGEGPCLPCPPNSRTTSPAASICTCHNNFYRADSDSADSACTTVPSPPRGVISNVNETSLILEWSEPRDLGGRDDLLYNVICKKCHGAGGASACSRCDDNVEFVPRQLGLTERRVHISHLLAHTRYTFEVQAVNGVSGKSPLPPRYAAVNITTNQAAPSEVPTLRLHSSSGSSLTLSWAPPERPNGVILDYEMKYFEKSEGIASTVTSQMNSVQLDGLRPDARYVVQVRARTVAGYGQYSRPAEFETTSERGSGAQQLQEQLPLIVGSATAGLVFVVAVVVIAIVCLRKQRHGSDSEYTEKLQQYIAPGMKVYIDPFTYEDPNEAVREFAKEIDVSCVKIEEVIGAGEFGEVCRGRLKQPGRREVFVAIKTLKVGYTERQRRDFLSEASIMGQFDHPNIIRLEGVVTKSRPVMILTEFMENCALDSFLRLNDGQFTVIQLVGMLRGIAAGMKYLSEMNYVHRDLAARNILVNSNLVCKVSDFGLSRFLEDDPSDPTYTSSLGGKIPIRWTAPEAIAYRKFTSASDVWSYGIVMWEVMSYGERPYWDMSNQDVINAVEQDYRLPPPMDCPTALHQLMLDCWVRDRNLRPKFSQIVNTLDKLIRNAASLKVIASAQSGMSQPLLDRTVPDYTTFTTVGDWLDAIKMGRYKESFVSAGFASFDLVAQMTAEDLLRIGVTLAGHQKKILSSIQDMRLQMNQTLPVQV

Consider `Cc1nn(C)cc1-c1nc2c(Oc3ccc(C(=O)Nc4ccccc4)cc3)c(Cl)cnc2[nH]1` [compound 28c, 4-((6-Chloro-2-(1,3-dimethyl-1H-pyrazol-4-yl)-3H-imidazo[4,5-b]pyridin-7-yl)oxy)-N-phenylbenzamide], for which the remaining activity at 1 µM is 4% at Aurora A; 102% on DYRK3; 58% on CDK2-Cyclin A; 36% on ERK8; 106% at EPH-B3; 93% on MEKK1. For the same compound, the remaining activity at 1 µM was 100% on TAO1; 103% on MARK1; 94% on MKK2; 94% on RSK2; 84% at CLK2; 100% at PKCz. Further, the remaining activity at 1 µM stood at 109% on MNK2; 96% at p38g MAPK; 86% at CK1; 124% at IR; 101% at IKKe; 92% at MAPKAP-K3. The remaining activity at 1 µM on HIPK1 came to 102%; at FGF-R1, 82%; at EPH-B2, 91%; on EPH-A4, 112%; at CHK1 it was 94%; on YES1, 111%. For the same compound, at PIM3, the remaining activity at 1 µM amounted to 102%.
Regarding `Cc1nn(C)cc1-c1nc2c(Oc3ccc(C(=O)NC4CCC4)cc3)c(Cl)cnc2[nH]1` [compound 40f, 4-((6-Chloro-2-(1,3-dimethyl-1H-pyrazol-4-yl)-3H-imidazo[4,5-b]pyridin-7-yl)oxy)-N-cyclobutylbenzamide], the remaining activity at 1 µM at CK1δ was found to be 87%. The “phosphorylation of Aurora-A” value on Aurora-A wild type was “completely inhibited”.
